Laboratory results reported in US7998965B2, “Glutamate aggrecanase inhibitors” (Wyeth LLC, priority 2005, dated 2011).
Where two headings read alike, the source gives them in different places.

Biological target: T1, purified recombinant human Aggrecanase-1 (rAgg1) (Homo sapiens, UniProt O75173)
T1 sequence (O75173 213-837): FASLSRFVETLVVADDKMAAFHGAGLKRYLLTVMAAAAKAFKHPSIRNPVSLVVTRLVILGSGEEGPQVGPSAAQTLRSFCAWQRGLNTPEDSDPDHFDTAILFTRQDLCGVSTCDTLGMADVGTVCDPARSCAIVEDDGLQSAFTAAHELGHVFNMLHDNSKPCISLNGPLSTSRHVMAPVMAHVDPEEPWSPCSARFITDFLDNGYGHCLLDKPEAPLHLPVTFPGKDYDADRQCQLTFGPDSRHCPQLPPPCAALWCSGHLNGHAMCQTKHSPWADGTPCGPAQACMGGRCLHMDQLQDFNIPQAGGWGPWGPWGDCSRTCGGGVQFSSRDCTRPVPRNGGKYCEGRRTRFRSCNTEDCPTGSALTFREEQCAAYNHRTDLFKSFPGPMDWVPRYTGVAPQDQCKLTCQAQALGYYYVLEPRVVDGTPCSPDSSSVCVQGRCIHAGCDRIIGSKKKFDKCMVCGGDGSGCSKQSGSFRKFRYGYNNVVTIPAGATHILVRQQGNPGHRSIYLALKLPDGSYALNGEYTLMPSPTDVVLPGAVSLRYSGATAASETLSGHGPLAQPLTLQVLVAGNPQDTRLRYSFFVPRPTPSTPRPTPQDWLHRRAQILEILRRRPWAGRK
Test: In vitro fluorescence screen for Aggrecanase-1 inhibitors
Type: biochemical
Settings: for IC50: read-out: Agg1 IC50; for Ki: enzyme not given, column follows Agg1 IC50, read-out: Ki

SMILES | IC50 (Table 1) [µM] | other results
COCCNC(=O)[C@H](CCC(=O)O)NC(=O)c1ccc(-c2ccccc2)cc1 [Example 8J, N^2-(1,1′-biphenyl-4-ylcarbonyl)-N^1-(2-methoxyethyl)-L-α-glutamine] | 0.36 | –
O=C(O)CC[C@H](NC(=O)c1ccc(-c2ccc(NC(=O)Cc3ccccc3)cc2)cc1)C(=O)O [Example 26, N-({4′-[(Phenylacetyl)amino]1,1′-biphenyl-4-yl}carbonyl)-L-α-glutamic acid] | 5 | –
O=C(O)CCC(NC(=O)c1ccc(-c2ccccc2)cc1)C(=O)O (stereo in doubt) [Example 2, N-(1,1′-biphenyl-4-ylcarbonyl)-D-glutamic acid] | 0.111 | –
O=C(O)CC[C@H](NC(=O)c1ccc(-c2ccccn2)cc1)C(=O)NCc1ccccc1 [Example 12E, N^1-benzyl-N^2-(4-pyridin-2-ylbenzoyl)-L-α-glutamine] | 1.8 | –
O=C(O)CC[C@H](NC(=O)c1ccc(-c2ccccc2)cc1)C(=O)NCC1C2CC3CC(C2)CC1C3 (stereo partly drawn) [Example 8I, N^1-(2-adamantylmethyl)-N^2-(1,1′-biphenyl-4-ylcarbonyl)-L-α-glutamine] | 0.5 | –
CC(C)(C)CCNC(=O)[C@H](CCC(=O)O)NC(=O)c1ccc(-c2ccccc2)cc1 [Example 8LLL, N^2-(biphenyl-4-ylcarbonyl)-N^1-(3,3-dimethylbutyl)-L-α-glutamine] | 0.23 | –
Cc1ccccc1CNC(=O)[C@H](CCC(=O)O)NC(=O)c1ccc(-c2ccccc2)cc1 [Example 8EE, N^2-(1,1′-biphenyl-4-ylcarbonyl)-N^1-(2-methylbenzyl)-L-α-glutamine] | 0.2 | –
Cc1ccc(CNC(=O)[C@H](CCC(=O)NO)NC(=O)c2ccc(-c3ccccc3)cc2)cc1C [Example 33B, N^2-(1,1′-biphenyl-4-ylcarbonyl)-N^1-(3,4-dimethylbenzyl)-N^5-hydroxy-L-α-glutamamide] | < 0.03 | –
O=C(O)CC[C@H](NC(=O)c1ccc(-c2nccs2)cc1)C(=O)NCc1ccccc1 [Example 12D, N^1-benzyl-N^2-[4-(1,3-thiazol-2-yl)benzoyl]-L-α-glutamine] | > 100 | –
COc1cc(CNC(=O)[C@H](CCC(=O)O)NC(=O)c2ccc3c(c2)C(=O)c2ccccc2-3)cc(OC)c1OC [Example 8MMMM, N^2-[(9-oxo-9H-fluoren-2-yl)carbonyl]-N^1-(3,4,5-trimethoxybenzyl)-L-α-glutamine] | 0.047 | Ki (Table 1): 0.057 µM
COc1ccc(-c2ccc(CCNC(=O)[C@H](CCC(=O)O)NC(=O)c3ccc(-c4ccccc4)cc3)cc2)cc1 [Example 10B, N^2-(biphenyl-4-ylcarbonyl)-N^1-[2-(4′-methoxybiphenyl-4-yl)ethyl]-L-α-glutamine] | 0.15 | –
COc1cc(CNC(=O)[C@H](CCC(=O)O)NC(=O)c2cccc3c2Cc2ccccc2-3)cc(OC)c1OC [Example 8LLLL, N^2-(9H-fluoren-1-ylcarbonyl)-N^1-(3,4,5-trimethoxybenzyl)-L-α-glutamine] | – | Agg1 IC50 (nM) (Table 1): no inh
O=C(O)CC[C@H](NC(=O)c1ccc2c(c1)Cc1ccccc1-2)C(=O)NCCCc1ccccc1 [Example 8IIII, N^2-(9H-fluoren-2-ylcarbonyl)-N^1-(3-phenylpropyl)-L-α-glutamine] | < 0.03 | Ki (Table 1): 0.009 µM
COc1cccc(COc2ccc(-c3ccc(C(=O)N[C@@H](CCC(=O)O)C(=O)NCc4ccccc4)cc3)cc2)c1 [Example 15F, N^1-benzyl-N^2-({4′-[(3-methoxybenzyl)oxy]-1,1′-biphenyl-4-yl}carbonyl)-L-α-glutamine] | 0.6 | –
CC(C)(C)c1ccc(CNC(=O)[C@H](CCC(=O)O)NC(=O)c2ccc(-c3ccccc3)cc2)cc1 [Example 8KK, N^2-(1,1′-biphenyl-4-ylcarbonyl)-N^1-(4-tert-butylbenzyl)-L-α-glutamine] | 0.18 | –
Nc1cccc(CNC(=O)[C@H](CCC(=O)O)NC(=O)c2ccc(-c3ccccc3)cc2)c1 [Example 8DDDD, N^1-(3-aminobenzyl)-N^2-(1,1′-biphenyl-4-ylcarbonyl)-L-α-glutamine] | 0.11 | –
Cc1c(C(=O)Nc2ccc(-c3ccc(C(=O)N[C@@H](CCC(=O)O)C(=O)O)cc3)cc2)oc2ccccc12 [Example 27, N-[(4′-{[(3-Methyl-1-benzofuran-2-yl)carbonyl]-amino}-1,1′-biphenyl-4-yl)carbonyl]-L-α-glutamic acid] | 0.4 | –
O=C(O)CC[C@H](NC(=O)c1ccc(C(=O)c2ccccc2)cc1)C(=O)NCc1ccccc1 [Example 8SSSS, N^2-(4-benzoylbenzoyl)-N^1-benzyl-L-α-glutamine] | > 200 | –
O=C(O)CC[C@H](NC(=O)c1ccc(-c2ccc(NC(=O)c3cc4ccccc4o3)cc2)cc1)C(=O)O [Example 31, N-({4′-[(1-benzofuran-2-ylcarbonyl)amino]-1,1′-biphenyl-4-yl}carbonyl)-L-α-glutamic acid] | 1 | –

SMILES | IC50 (Table 1) [µM] | other results
COc1cccc(CNC(=O)[C@H](CCC(=O)O)NC(=O)c2ccc(-c3ccccc3C)c(C)c2)c1 [Example 22C, N^2-[(2,2′-dimethyl-1,1′-biphenyl-4-yl)carbonyl]-N^1-(3-methoxybenzyl)-L-α-glutamine] | > 50 | –
CCCCCCNC(=O)[C@H](CCC(=O)O)NC(=O)c1cccc2c1Cc1ccccc1-2 [Example 8PPPP, N^2-(9H-fluoren-1-ylcarbonyl)-N^1-hexyl-L-α-glutamine] | > 50 | –
C#Cc1ccc(-c2ccc(C(=O)N[C@@H](CCC(=O)O)C(=O)NCc3ccccc3)cc2)cc1 [Example 12B, N^1-benzyl-N^2-[(4′-ethynyl-1,1′-biphenyl-4-yl)carbonyl]-L-α-glutamine] | 35 | –
NC(=O)[C@@H](CCC(=O)O)NC(=O)c1ccc(-c2ccccc2)cc1 [Example 4, N^2-(1,1′-biphenyl-4-ylcarbonyl)-D-alpha-glutamine] | 1.1 | –
O=C(O)CC[C@H](NC(=O)c1ccc(-c2ccccc2)cc1)C(=O)NCCc1ccc(-c2ccncc2)cc1 [Example 10H, N^2-(biphenyl-4-ylcarbonyl)-N^1-[2-(4-pyridin-4-ylphenyl)ethyl]-L-α-glutamine] | 0.3 | –
O=C(O)CC[C@H](NC(=O)c1ccc(Br)cc1)C(=O)NCc1ccccc1 [Example 8NNNNNN, N^1-benzyl-N^2-(4-bromobenzoyl)-L-α-glutamine] | ~40 | –
CCCCOc1ccc(-c2ccc(C(=O)N[C@@H](CCC(=O)O)C(=O)NCc3ccccc3)cc2)cc1 [Example 15B, N^1-benzyl-N^2-[(4′-butoxy-1,1′-biphenyl-4-yl)carbonyl]-L-α-glutamine] | – | Agg1 % @ concentration (Table 1, @ 7,500 (nM)): 67% @
CCOc1cccc(-c2ccc(C(=O)N[C@@H](CCC(=O)O)C(=O)NCc3ccccc3)o2)c1 [Example 21A, N^1-benzyl-N^2-[5-(3-ethoxyphenyl)-2-furoyl]-L-α-glutamine] | 2.5 to 7.5 | –
Cc1cccc(CNC(=O)[C@H](CCC(=O)O)NC(=O)c2ccc3c(c2)Cc2ccccc2-3)c1 [Example 8CCCCC, N^2-(9H-fluoren-2-ylcarbonyl)-N^1-(3-methylbenzyl)-L-α-glutamine] | – | IC50 (Table 2): 0.107 µM
CCCCCCNC(=O)[C@H](CCC(=O)O)NC(=O)c1ccc2c(c1)Cc1ccccc1-2 [Example 8OOOO, N^2-(9H-fluoren-2-ylcarbonyl)-N^1-hexyl-L-α-glutamine] | 0.052 | Ki (Table 1): 0.06 µM
O=C(O)CC[C@H](NC(=O)c1cccc(-c2ccccc2)c1)C(=O)NCc1ccccc1 [Example 17WW, N^1-benzyl-N^2-(1,1′-biphenyl-3-ylcarbonyl)-L-α-glutamine] | – | Agg1 IC50 (nM) (Table 1): no inh
O=C(O)CC[C@H](NC(=O)c1ccc(-c2ccccc2)cc1)C(=O)NCCc1ccc(Cl)cc1 [Example 8UU, N^2-(biphenyl-4-ylcarbonyl)-N^1-[2-(4-chlorophenyl)ethyl]-L-α-glutamine] | 0.2 | –
CCOc1ccccc1-c1ccc(CCNC(=O)[C@H](CCC(=O)O)NC(=O)c2ccc(-c3ccccc3)cc2)cc1 [Example 10E, N^2-(biphenyl-4-ylcarbonyl)-N^1-[2-(2′-ethoxybiphenyl-4-yl)ethyl]-L-α-glutamine] | 0.37 | –
O=C(O)CC[C@H](NC(=O)c1ccc(-c2cccnc2)cc1)C(=O)NCc1ccccc1 [Example 12C, N^1-benzyl-N^2-(4-pyridin-3-ylbenzoyl)-L-α-glutamine] | 25 | –
O=C(O)CC[C@H](NC(=O)c1ccc(-c2ccccc2)cc1)C(=O)NCc1ccco1 [Example 8P, N^2-(1,1′-biphenyl-4-ylcarbonyl)-N^1-(2-furylmethyl)-L-α-glutamine] | 0.29 | –
C=Cc1ccc(-c2ccc(C(=O)N[C@@H](CCC(=O)O)C(=O)NCc3ccccc3)cc2)cc1 [Example 13G, N^1-benzyl-N^2-[(4′-vinyl-1,1′-biphenyl-4-yl)carbonyl]-L-α-glutamine] | ~2.5 | –
Cc1cccc(C)c1-c1ccc(C(=O)N[C@@H](CCC(=O)O)C(=O)NCc2ccccc2)cc1 [Example 13F, N^1-benzyl-N^2-[(2′,6′-dimethyl-1,1′-biphenyl-4-yl)carbonyl]-L-α-glutamine] | ~0.2 | –
Cc1ccc(C)c(-c2ccc(C(=O)N[C@@H](CCC(=O)O)C(=O)NCc3ccccc3)cc2)c1 [Example 13B, N^1-benzyl-N^2-[(2′,5′-dimethyl-1,1′-biphenyl-4-yl)carbonyl]-L-α-glutamine] | ~50 | –
